Measured values reported in patent US20100029734A1, “METHODS FOR BREAST CANCER SCREENING AND TREATMENT” (Ore Pharmaceuticals Inc., priority 2008, published 2010).
Entries after “also recorded” stand apart in the source; their conditions may differ.

Legend:
T47D (ER+, PR+) = conditions: T47D cells; cited from earlier work
T47D xenografts = assay: Growth of ER+ breast cancer cell line xenografts in NODscid mice; format: in vivo; conditions: 3-5 weeks, female NODscid mice
Description: Female NODscid mice of age 5-6 weeks received a subcutaneous estrogen pellet implant (1.7 mg). Twenty four hours after estrogen pellet implantation, the mice received tumor implantation by subcutaneous injection of T47D cells to the flank (approximately 2.5×10^6 cells/mouse). The mice were ear-notched for identification and housed 4 animals per cage. […] Tumors were measured 3 times weekly using digital calipers. Body weight was measured twice weekly. Clinical observations were conducted weekly.

T47D (ER+ cell line) = assay: RT-CES cell proliferation assay, T47D; format: cell-based, human
Description: (§1) Unless otherwise indicated, cell proliferation assays described in Examples 2-5 were performed using a Real-Time Cell Electronic Sensing (RT-CES™ 96X) instrument from ACEA Bioscience (San Diego, Calif.). This instrument utilizes an electronic readout (impedance) to non-invasively quantify adherent cell proliferation and viability in real time.
(§2) Cells were seeded in 96-well microtiter plates containing microelectronic sensor arrays (96E plates; ACEA). Cells were maintained in RPMI 1640 (Invitrogen, Carlsbad, Calif.) supplemented with 10% fetal bovine serum (FBS) (Hyclone, Logan, Utah) and were cultured at 37° C. in a humidified atmosphere containing 5% CO2. For proliferation assays, cells were seeded (20,000 cells/well), allowed to attach and grown overnight in standard growth medium. Cells were then serum-starved for 8 hours prior to the proliferation assay in presence or absence of test compound(s). The proliferation response was continuously monitored by measuring the impedance change in each well for the indicated number of hours. Data are expressed as cell index (CI) change relative to time in culture, reflecting measured changes in electrical impedance. Each value shown is an average of 6 wells.
(§3) T47D (American Type Culture Collection, Manassas, Va. (ATCC) cat. HTB-133) is an ER+ cell line derived from human mammary gland ductal carcinoma Other ER+ cell lines used in studies reported herein include ZR-75 and HCC70. HCC1143 (ATCC cat. CRL-2321) is an ER− cell line also derived from human mammary gland ductal carcinoma.
(§4) Following the 8 hour starvation phase, either Ang II (Sigma-Aldrich), 500 nM, or vehicle control was added to the cell culture. […] Ang II also stimulated proliferation of ER+ cell lines HCC70, by approximately 30%, and ZR-75, by approximately 35%, relative to vehicle control (data not shown).

HCC1143 (ER− cell line) = assay: RT-CES cell proliferation assay, HCC1143; format: cell-based, human
Description: as §1, §2, §3, §4

[1] = tested on: cells cultured from invasive ductal carcinomas; conditions: cells positive for ER and PR, cited from earlier work
invasive breast cancer = conditions: administered for 5 years; women having risk factors; cited from earlier work
HCC70 = assay: RT-CES cell proliferation assay, HCC70; format: cell-based, human
Description: as §1
as §2, with “wells. […]” for “wells.”

ZR-75 = assay: RT-CES cell proliferation assay, ZR-75; format: cell-based, human
Description: as §1
as §2, with “wells. […]” for “wells.”

HCC1395 = assay: RT-CES cell proliferation assay, HCC1395; format: cell-based, human
Description: as §1
as §2, with “wells. […]” for “wells.”

HCC1954 = assay: RT-CES cell proliferation assay, HCC1954; format: cell-based, human
Description: as §1
as §2, with “wells. […]” for “wells.”

HCC1937 = assay: RT-CES cell proliferation assay, HCC1937; format: cell-based, human
Description: as §1
as §2, with “wells. […]” for “wells.”

HCC38 = assay: RT-CES cell proliferation assay, HCC38; format: cell-based, human
Description: as §1
as §2, with “wells. […]” for “wells.”

T47D = conditions: cited from earlier work
MCF-7 = conditions: cited from earlier work

Molecule: C[C@H](CS)C(=O)N1CCC[C@H]1C(=O)O [Captopril, (2S)-1-((2S)-2-methyl-3-sulfanylpropanoyl)pyrrolidine-2-carboxylic acid]
- ER protein concentration (T47D (ER+, PR+)): reduced ER
- PR protein concentration (T47D (ER+, PR+)): increased PR
- [3H]thymidine incorporation (an index of cell proliferation) (T47D (ER+, PR+)): inhibited [3H]thymidine incorporation

Molecule: CCOc1nc2cccc(C(=O)OC(C)OC(=O)OC3CCCCC3)c2n1Cc1ccc(-c2ccccc2-c2nnn[nH]2)cc1 (stereo not shown) [candesartan cilexetil]
- growth in tumor volume (T47D xenografts; candesartan cilexetil 10, 30, 100 mg/kg p.o. once daily): reduced in a dose-dependent fashion

Molecule: CCCCC1=NC2(CCCC2)C(=O)N1Cc1ccc(-c2ccccc2-c2nnn[nH]2)cc1 [irbesartan]
- inhibition of Ang II-induced growth / cell proliferation (T47D (ER+ cell line); T47D, AT1 receptor antagonist 5 μM + Ang II 500 nM): significantly inhibited Ang II-induced growth; also recorded: reversed the Ang II effect
- effect on cell proliferation (HCC1143 (ER− cell line); HCC1143, AT1 receptor antagonist 5 μM + Ang II 500 nM, data not shown): No effects
- growth in tumor volume (T47D xenografts; irbesartan 30, 100, 300 mg/kg p.o. once daily): lowest dose tested (30 mg/kg) appeared to give the greatest effect

Molecule: NCCCCC(NC(CCc1ccccc1)C(=O)O)C(=O)N1CCCC1C(=O)O.O.O (stereo not shown) [lisinopril, 1-(6-amino-2-(1-carboxy-3-phenyl-propyl)aminohexanoyl)pyrrolidine-2-carboxylic acid dihydrate]
- ER protein concentration (T47D (ER+, PR+)): No such effects
- PR protein concentration (T47D (ER+, PR+)): No such effects
- [3H]thymidine incorporation (an index of cell proliferation) (T47D (ER+, PR+)): No such effects

Molecule: CCCCc1nc(Cl)c(CO)n1Cc1ccc(-c2ccccc2-c2nn[nH]n2)cc1 [losartan]
- effect on Ang II-stimulated proliferation [1]: blocked

Molecule: CC/C(=C(\c1ccccc1)c1ccc(OCCN(C)C)cc1)c1ccccc1 [tamoxifen]
- effect on Ang II-induced cell proliferation (T47D (ER+ cell line); T47D, tamoxifen 7.5 μM + Ang II 500 nM): reduced cell proliferation to a level lower than that of vehicle control
- growth in tumor volume (T47D xenografts; tamoxifen 0.1, 0.3, 1.0 mg/kg p.o. once daily): reduced in a dose-dependent fashion
- reduction of incidence of invasive breast cancer (invasive breast cancer): ~50%

Molecule: CCCc1nc2c(C)cc(-c3nc4ccccc4n3C)cc2n1Cc1ccc(-c2ccccc2C(=O)O)cc1 [telmisartan]
- inhibition of Ang II-induced growth (T47D (ER+ cell line); T47D, telmisartan 1.25 μM or 5 μM + Ang II 500 nM): significantly inhibited Ang II-induced growth
- effect on cell proliferation (HCC1143 (ER− cell line); HCC1143, telmisartan 1.25 μM or 5 μM + Ang II 500 nM): No effects

Molecule: Ang II: peptide angiotensin II, a major regulator of blood pressure and cardiovascular homeostasis; from Sigma-Aldrich (DRVYIHPF; Angiotensin-2; UniProt P01019 25-32, looked up)
- Ang II proliferation response (T47D (ER+ cell line); T47D): positive
- effect of Ang II on growth / cell proliferation (T47D (ER+ cell line); T47D (ER+), Ang II 500 nM vs vehicle control, after 8 h serum starvation): significantly stimulated growth; also recorded: substantial increase in cell proliferation
- Ang II proliferation response (HCC1143 (ER− cell line); HCC1143): negative
- effect of Ang II on growth / cell proliferation (HCC1143 (ER− cell line); HCC1143 (ER−), Ang II 500 nM vs vehicle control): No effects
- Ang II proliferation response (HCC70; HCC70): positive
- stimulation of proliferation relative to vehicle control (HCC70; HCC70 (ER+), Ang II, data not shown): approximately 30%
- Ang II proliferation response (ZR-75; ZR-75): positive
- stimulation of proliferation relative to vehicle control (ZR-75; ZR-75 (ER+), Ang II, data not shown): approximately 35%
- Ang II proliferation response (HCC1395): negative
- Ang II proliferation response (HCC1954): negative
- Ang II proliferation response (HCC1937): negative
- Ang II proliferation response (HCC38): negative
- proliferation of cultured cells ([1]; Ang II): stimulated in a dose-dependent manner
- stimulation of cell growth by Ang II (T47D): significant stimulation of cell growth
- proliferative effect (MCF-7): dose-dependent proliferative effect
